# From US20230312562A1, “TETRAHYDRO-3H-PYRAZOLO QUINOLONE AND TETRAHYDRO-3H-PYRROLO[3,2-F]QUINOLINE -CONTAINING COMPOUNDS AND USES THEREOF” (Purdue Research Foundation, priority 2020, published 2023)
# Tested on: MDA-MB-231
# Assay: Inhibition of MDA-MB-231 viability/growth at 1 μM, 72 h
# Assay type: cell-based
# Conditions: 1 μM compound, 72 h incubation
row,Structure (SMILES),"Inhibition of MDA-MB-231, result in words"
1,"Nc1n[nH]c2ccc([C@@H]3Nc4ccc5[nH]nnc5c4[C@H]4C5CC[C@@H](C5)[C@@H]34)cc12 (stereo in doubt) [Compound 18, 5-(6,7,7a,8,9,10,11,11a-Octahydro-3H-8,11-methano[1,2,3]triazolo[4,5-a]phenanthridin-7-yl)-1H-indazol-3-amine]",loss in potency
2,"Nc1n[nH]c2ccc([C@@H]3Nc4ccc5[nH]cnc5c4[C@H]4C5CC[C@@H](C5)[C@@H]34)cc12 (stereo in doubt) [Compound 19, 5-(6,7,7a,8,9,10,11,11a-Octahydro-3H-8,11-methanoimidazo[4,5-a]phenanthridin-7-yl)-1H-indazol-3-amine]",loss in potency
3,"Cc1n[nH]c2ccc3c(c12)[C@H]1C2CC[C@@H](C2)[C@H]1[C@H](c1ccc2[nH]nc(N)c2c1)N3 (stereo in doubt) [Compound 20, 5-(1-Methyl-6,7,7a,8,9,10,11,11a-octahydro-3H-8,11-methanopyrazolo[4,3-a]phenanthridin-7-yl)-1H-indazol-3-amine]",loss of potency

# Same assay, conditions: Homo sapiens, MDA-MB-231; 1 μM compound, 72 h incubation
row,Structure (SMILES),inhibition at 1 µM [%]
1,"FC(F)(F)c1n[nH]cc1[C@@H]1Nc2ccc3[nH]ncc3c2[C@H]2[C@@H]3CC[C@@H](C3)[C@H]21 (stereo in doubt) [Compound 1, 7-(3-(Trifluoromethyl)-1H-pyrazol-4-yl)-6,7,7a,8,9,10,11,11a-octahydro 3H-8,11-methanopyrazolo[4,3-a]phenanthridine]",5
2,"c1n[nH]cc1[C@@H]1Nc2ccc3[nH]ncc3c2[C@H]2[C@@H]3CC[C@@H](C3)[C@H]21 (stereo in doubt) [Compound 2, 7-(1H-Pyrazol-4-yl)-6,7,7a,8,9,10,11,11a-octahydro-3H-8,11-methanopyrazolo[4,3-a]phenanthridine]",12
3,"c1csc([C@@H]2Nc3ccc4[nH]ncc4c3[C@H]3[C@@H]4CC[C@@H](C4)[C@H]32)n1 (stereo in doubt) [Compound 3, 2-(6,7,7a,8,9,10,11,11a-Octahydro-3H-8,11-methanopyrazolo[4,3-a]phenanthridin-7-yl)thiazole]",13
4,"c1nc([C@@H]2Nc3ccc4[nH]ncc4c3[C@H]3[C@@H]4CC[C@@H](C4)[C@H]32)c[nH]1 (stereo in doubt) [Compound 4, 7-(1H-Imidazol-4-yl)-6,7,7a,8,9,10,11,11a-octahydro-3H-8,11-methanopyrazolo[4,3-a]phenanthridine]",14
5,"Cn1cc([C@@H]2Nc3ccc4[nH]ncc4c3[C@H]3[C@@H]4CC[C@@H](C4)[C@H]32)c(C(F)(F)F)n1 (stereo in doubt) [Compound 5, 7-(1-Methyl-3-(trifluoromethyl)-1H-pyrazol-4-yl)-6,7,7a,8,9,10,11,11a-octahydro-3H-8,11-methanopyrazolo[4,3-a]phenanthridine]",70
6,"FC(F)(F)c1ccc([C@@H]2Nc3ccc4[nH]ncc4c3[C@H]3[C@@H]4CC[C@@H](C4)[C@H]32)cc1 (stereo in doubt) [Compound 6, 7-(4-(Trifluoromethyl)phenyl)-6,7,7a,8,9,10,11,11a-octahydro-3H-8,11-methanopyrazolo[4,3-a]phenanthridine]",21
7,"Fc1cnccc1[C@@H]1Nc2ccc3[nH]ncc3c2[C@H]2[C@@H]3CC[C@@H](C3)[C@H]21 (stereo in doubt) [Compound 7, 7-(3-Fluoropyridin-4-yl)-6,7,7a,8,9,10,11,11a-octahydro-3H-8,11-methanopyrazolo[4,3-a]phenanthridine]",11
8,"c1csc([C@@H]2Nc3ccc4[nH]ncc4c3[C@H]3[C@@H]4CC[C@@H](C4)[C@H]32)c1 (stereo in doubt) [Compound 8, 7-(Thiophen-2-yl)-6,7,7a,8,9,10,11,11a-octahydro-3H-8,11-methanopyrazolo[4,3-a]phenanthridine]",13
9,"Nc1ccc([C@@H]2Nc3ccc4[nH]ncc4c3[C@H]3[C@@H]4CC[C@@H](C4)[C@H]32)cn1 (stereo in doubt) [Compound 9, 5-(6,7,7a,8,9,10,11,11a-Octahydro-3H-8,11-methanopyrazolo[4,3-a]phenanthridin-7-yl)pyridin-2-amine]",18
10,"N#Cc1cc([C@@H]2Nc3ccc4[nH]ncc4c3[C@H]3[C@@H]4CC[C@@H](C4)[C@H]32)ccc1F (stereo in doubt) [Compound 10, 2-Fluoro-5-(−6,7,7a,8,9,10,11,11a-octahydro-3H-8,11-methanopyrazolo[4,3-a]phenanthridin-7-yl)benzonitrile]",3
11,"Oc1ccc([C@@H]2Nc3ccc4[nH]ncc4c3[C@H]3C4CC[C@@H](C4)[C@@H]23)cc1 (stereo in doubt) [Compound 11, 4-(−6,7,7a,8,9,10,11,11a-Octahydro-3H-8,11-methanopyrazolo[4,3-a]phenanthridin-7-yl)phenol]",0
12,"NC(=O)c1ccc([C@@H]2Nc3ccc4[nH]ncc4c3[C@H]3C4CC[C@@H](C4)[C@@H]23)cc1 (stereo in doubt) [Compound 12, 4-(6,7,7a,8,9,10,11,11a-Octahydro-3H-8,11-methanopyrazolo[4,3-a]phenanthridin-7-yl)benzamide]",17
13,"Cn1cc([C@@H]2Nc3ccc4[nH]ncc4c3[C@H]3C4CC[C@@H](C4)[C@@H]23)c(C2CC2)n1 (stereo in doubt) [Compound 13, 7-(3-Cyclopropyl-1-methyl-1H-pyrazol-4-yl)-6,7,7a,8,9,10,11,11a-octahydro-3H-8,11-methanopyrazolo[4,3-a]phenanthridine]",0
14,"Oc1ccc([C@@H]2Nc3ccc4[nH]ncc4c3[C@H]3C4CC[C@@H](C4)[C@@H]23)c(F)c1 (stereo in doubt) [Compound 14, 3-Fluoro-4-(6,7,7a,8,9,10,11,11a-octahydro-3H-8,11-methanopyrazolo[4,3-a]phenanthridin-7-yl)phenol]",11
15,"COc1cnccc1[C@@H]1Nc2ccc3[nH]ncc3c2[C@H]2C3CC[C@@H](C3)[C@@H]12 (stereo in doubt) [Compound 15, 7-(3-Methoxypyridin-4-yl)-6,7,7a,8,9,10,11,11a-octahydro-3H-8,11-methanopyrazolo[4,3-a]phenanthridine]",12
16,"c1cc2[nH]ncc2cc1[C@@H]1Nc2ccc3[nH]ncc3c2[C@H]2C3CC[C@@H](C3)[C@@H]12 (stereo in doubt) [Compound 16, 7-(1H-Indazol-5-yl)-6,7,7a,8,9,10,11,11a-octahydro-3H-8,11-methanopyrazolo[4,3-a]phenanthridine]",78
17,"c1cc2cn[nH]c2cc1[C@@H]1Nc2ccc3[nH]ncc3c2[C@H]2C3CC[C@@H](C3)[C@@H]12 (stereo in doubt) [Compound 17, 7-(1H-Indazol-6-yl)-6,7,7a,8,9,10,11,11a-octahydro-3H-8,11-methanopyrazolo[4,3-a]phenanthridine]",91
